This passage reports melting point results from patent US6387912B1, “Utilization of pyrimidine derivatives for preventing and treating cerebral ischaemia” (BASF Aktiengesellschaft, priority 1999, dated 2002).

The structures appear in SMILES notation. Counter-ions that a name gives are not always drawn.

What is called melting point is the temperature, or range, at which the solid turns liquid.

The compound `Cc1c(C(=O)N(C)C)sc2ncn(CCN3CCN(c4cccc5c4CCCC5)CC3)c(=O)c12` [Example 13, 3,4-Dihydro-5-methyl-6-dimethylcarbamoyl-3-[2-(4-tetralin-5-ylpiperazin-1-yl)ethyl]thieno[2,3-d]pyrimidin-4-one] came in with a melting point of 174 °C.

`Cc1ccc(N2CCN(CCn3cnc4sc5c(c4c3=O)CCN(C)C5)CC2)c2ccccc12` [Example 138, 3,4,5,6,7,8-Hexahydro-7-methyl-3-[2-(4-(4-methylnaphth-1-yl)piperazin-1-yl)ethyl]pyrido[4′,3′:4,5]thieno[2,3-d]-pyrimidin-4-one] registered a melting point of 139 to 141 °C.

`Cc1c(C(=O)N(C)C)sc2ncn(CCN3CCN(c4ccccc4C#N)CC3)c(=O)c12` (as salt: hydrochloride) [Example 15, 3,4-Dihydro-5-methyl-6-dimethylcarbamoyl-3-[2-(4-(2-cyanophenyl)piperazin-1-yl)ethyl]thieno[2,3-d]pyrimidin-4-one] gave a melting point of 210 °C.

In turn, `CCN1CCc2sc3ncn(CCN4CCN(c5ccccc5Cl)CC4)c(=O)c3c2C1` [Example 5, 3,4,5,6,7,8-Hexahydro-6-ethyl-3-[2-(4-(2-chlorophenyl)-piperazin-1-yl)ethyl]pyrido[3′,4′:4,5]thieno[2,3-d]-pyrimidin-4-one] displayed a melting point of 148 to 150 °C.

In the case of `Cc1c(C(=O)N(C)C)sc2ncn(CCN3CCN(c4cccc5ccccc45)CC3)c(=O)c12` [Example 3, 3,4-Dihydro-5-methyl-6-dimethylcarbamoyl-3-[2-(4-(1-naphthyl)piperazin-1-yl)ethyl]thieno[2,3-d]pyrimidin-4-one], the melting point is 190 to 191 °C.

For `Cc1c(C(=O)N(C)C)sc2ncn(CCN3CCN(c4cccc5c4CCC5)CC3)c(=O)c12` [Example 14, 3,4-Dihydro-5-methyl-6-dimethylcarbamoyl-3-[2-(4-indan-4-ylpiperazin-1-yl)ethyl]thieno[2,3-d]pyrimidin-4-one], the melting point amounted to 153 °C.

Compound `CN1CCc2c(sc3ncn(CCCN4CCN(c5ccccc5C#N)CC4)c(=N)c23)C1` [Example 37, 3,4,5,6,7,8-Hexahydro-7-methyl-3-[3-(4-(2-cyanophenyl)-piperazin-1-yl)propyl]pyrido[4′,3′:4,5]thieno[2,3-d]-pyrimidin-4-imine] showed a melting point of 148 to 150 °C.

`CCOC(=O)N1Cc2sc3ncn(CCCN4CCN(c5ccccc5C#N)CC4)c(=O)c3c2C1` [Example 43, 3,4,5,7-Tetrahydro-6-carboethoxy-3-[3-(4-(2-cyanophenyl)-piperazin-1-yl)propyl]pyrrolo[3′,4′:4,5]thieno[2,3-d]-pyrimidin-4-one] registered a melting point of 190 °C.

Compound `CCOC(=O)N1Cc2sc3ncn(CCN4CCN(c5cccc6ccccc56)CC4)c(=O)c3c2C1` [Example 8, 3,4,5,7-Tetrahydro-6-carboethoxy-3-[2-(4-(1-naphthyl)-piperazin-1-yl)ethyl]pyrrolo[3′,4′:4,5]thieno[2,3-d]-pyrimidin-4-one] showed a melting point of 190 to 192 °C.

In the case of `CCOC(=O)N1Cc2sc3ncn(CCN4CCN(c5cccc6c5CCC6)CC4)c(=O)c3c2C1` [Example 44, 3,4,5,7-Tetrahydro-6-carboethoxy-3-[2-(4-indan-4-ylpiperazin-1-yl)ethyl]pyrrolo[3′,4′:4,5]thieno[2,3-d]pyrimidin-4-one], the melting point worked out at 149 °C.

Consider `CCOC(=O)N1Cc2sc3ncn(CC(C)N4CCN(c5ccccc5Cl)CC4)c(=O)c3c2C1` (centres unmarked) [Example 39, 3,4,5,7-Tetrahydro-6-carboethoxy-3-[2-(4-(2-chlorophenyl)-piperazin-1-yl)propyl]pyrrolo[3′,4′:4,5]thieno-[2,3-d]pyrimidin-4-one], for which the melting point came out at 172 °C.

Compound `COc1ccc(N2CCN(CCn3cnc4sc(C(=O)N(C)C)c(C)c4c3=O)CC2)c(OC)c1` [Example 30, 3,4-Dihydro-5-methyl-6-dimethylcarbamoyl-3-[2-(4-(2,4-dimethoxyphenyl)piperazin-1-yl)ethyl]thieno-[2,3-d]pyrimidin-4-one] returned a melting point of 170 to 171 °C.

With `CN1CCc2c(sc3ncn(CCN4CCN(c5ccc6ccccc6c5)CC4)c(=O)c23)C1` [Example 73, 3,4,5,6,7,8-Hexahydro-7-methyl-3-[2-(4-naphth-2-ylpiperazin-1-yl)ethyl]pyrido[4′,3′:4,5]thieno[2,3-d]pyrimidin-4-one], the melting point fell in the range of 140 to 141 °C.

Compound `CN1CCc2c(sc3ncn(CCN4CCN(c5ccc6ccccc6n5)CC4)c(=O)c23)C1` [Example 65, 3,4,5,6,7,8-Hexahydro-7-methyl-3-[2-(4-quinolin-2-yl-piperazin-1-yl)ethyl]pyrido[4′,3′:4,5]thieno[2,3-d]-pyrimidin-4-one] had a melting point of 143 to 145 °C.
